Key:
[1] = target: T1, human 11β-HSD1 (microsomes isolated from CHO cells overexpressing human 11β-HSD1) (Homo sapiens, UniProt P28845); assay: Inhibition of a microsomal preparation of 11β-HSD1, scintillation proximity assay; format: biochemical; details: microsomes from CHO cells overexpressing human 11β-HSD1; [3H]cortisone, SPA, 90 minutes at rt
T1 construct: expressed in transfected cells; host or cells: CHO cells (microsomes)

[2] = target: T2, 11β-HSD1 (human liver microsomes) (Homo sapiens, UniProt P28845); assay: In vitro inhibition of 11β-HSD1, HTRF detection of cortisol generated by human liver microsomes; format: biochemical; details: 100% indicates no inhibition, zero or below zero indicates complete inhibition; for remaining activity at 0.1 µM: 100 nM inhibitor, 1 hour at 37° C., read-out: Average % control inhibition at 100 nM; for remaining activity at 1 µM: 1 μM inhibitor (footnote *), read-out: Average % control inhibition (1 μM inhibitor concentration)
T2 construct: detecting cortisol generated from cortisterone by human liver microsomes; from tissue; host or cells: human liver microsomes
T2 sequence (P28845 whole entry): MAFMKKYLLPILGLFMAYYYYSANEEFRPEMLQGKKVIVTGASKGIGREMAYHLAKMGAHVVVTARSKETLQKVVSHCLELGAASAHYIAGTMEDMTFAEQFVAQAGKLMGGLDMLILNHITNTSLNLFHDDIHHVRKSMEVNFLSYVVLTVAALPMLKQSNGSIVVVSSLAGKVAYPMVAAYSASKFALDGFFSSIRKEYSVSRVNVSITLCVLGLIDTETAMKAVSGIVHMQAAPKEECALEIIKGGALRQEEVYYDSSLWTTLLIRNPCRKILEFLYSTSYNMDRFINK

T1 sequence (P28845 whole entry): as above

| Compound | remaining activity at 0.1 µM [2] | other results |
| --- | --- | --- |
| Cc1nc2cc(-c3ccc([C@H](C)N4CCC(CC(C)(C)O)(C(C)C)OC4=O)cc3)ccc2n1C (single isomer, unassigned) [Example 37] | – | IC50 [1]: 6.9 nM |
| CCNC(=O)c1ccc(-c2ccc([C@H](C)N3CC[C@](CC(C)(C)O)(c4ccccc4)OC3=O)cc2)cn1 [Example 15, 5-(4-{(S)-1-[(S)-6-(2-Hydroxy-2-methyl-propyl)-2-oxo-6-phenyl-[1,3]oxazinan-3-yl]-ethyl}-phenyl)-pyridine-2-carboxylic acid ethylamide] | -34% | – |
| CNC(=O)c1ccc(-c2ccc([C@H](C)N3CC[C@](CC(C)(C)O)(c4ccccc4)OC3=O)cc2)cn1 [Example 16, 5-(4-{(S)-1-[(S)-6-(2-Hydroxy-2-methyl-propyl)-2-oxo-6-phenyl-[1,3]oxazinan-3-yl]-ethyl}-phenyl)-pyridine-2-carboxylic acid methylamide] | -24% | – |
| C[C@@H](c1ccc(-c2ccc(C(=O)N(C)C)nc2)cc1)N1CC[C@](CC(C)(C)O)(c2ccccc2)OC1=O [Example 17, (4-{(S)-1-[(S)-6-(2-Hydroxy-2-methyl-propyl)-2-oxo-6-phenyl-[1,3]oxazinan-3-yl]-ethyl}-phenyl)-pyridine-2-carboxylic acid dimethylamide] | -10% | – |
| C[C@@H](c1ccc(C2CCNCC2)cc1)N1CC[C@](CC(C)(C)O)(c2ccccc2)OC1=O [Example 18, (S)-6-(2-Hydroxy-2-methyl-propyl)-6-phenyl-3-[(S)-1-(4-piperidin-4-yl-phenyl)-ethyl]-[1,3]oxazinan-2-one] | 93% | – |
| C[C@@H](c1ccc(C2CCN(C)C(=O)C2)cc1)N1CC[C@](CC(C)(C)O)(c2ccccc2)OC1=O (stereo partly drawn) [Example 33, (S)-6-(2-Hydroxy-2-methyl-propyl)-3-{(S)-1-[4-(1-methyl-2-oxo-piperidin-4-yl)-phenyl]-ethyl}-6-phenyl-[1,3]oxazinan-2-one] | – | remaining activity at 1 µM [2]: -27% |
| C[C@@H](c1ccc(C2CCC(=O)N(C)C2)cc1)N1CC[C@](CC(C)(C)O)(c2ccccc2)OC1=O (stereo partly drawn) [Example 34, (S)-6-(2-Hydroxy-2-methyl-propyl)-3-{(S)-1-[4-(1-methyl-6-oxo-piperidin-3-yl)-phenyl]-ethyl}-6-phenyl-[1,3]oxazinan-2-one] | – | remaining activity at 1 µM [2]: -17% |
| CC(C)C1(CC(C)(C)O)CCN([C@@H](C)c2ccc(-c3ccc4c(c3)ncn4C)cc2)C(=O)O1 (stereo partly drawn) [Example 38, 6-(2-hydroxy-2-methylpropyl)-6-isopropyl-3-{(S)-1-[4-(1-methyl-1H-benzo[d]imidazol-5-yl)phenyl]ethyl}-1,3-oxazinan-2-one] | – | IC50 [1]: 7.7 nM |

Now from value to compound, other results behind:

| remaining activity at 0.1 µM [2] | Compound | other results |
| --- | --- | --- |
| 97% | C[C@@H](c1ccc(C2CCN(C)CC2)cc1)N1CC[C@](CC(C)(C)O)(c2ccccc2)OC1=O [Example 21, (S)-6-(2-Hydroxy-2-methyl-propyl)-3-{(5)-1-[4-(1-methyl-piperidin-4-yl)-phenyl]-ethyl}-6-phenyl-[1,3]oxazinan-2-one] | – |
| 17% | C[C@@H](c1ccc(C2CCN(S(C)(=O)=O)CC2)cc1)N1CC[C@](CC(C)(C)O)(c2ccccc2)OC1=O [Example 22, (S)-6-(2-Hydroxy-2-methyl-propyl)-3-{(S)-1-[4-(1-methanesulfonyl-piperidin-4-yl)-phenyl]-ethyl}-6-phenyl-[1,3]oxazinan-2-one] | – |
| 44% | C[C@@H](c1ccc(C2CCN(C(=O)[C@@H]3CCCO3)CC2)cc1)N1CC[C@](CC(C)(C)O)(c2ccccc2)OC1=O [Example 23, (S)-6-(2-Hydroxy-2-methyl-propyl)-6-phenyl-3-((S)-1-{4-[1-((S)-tetrahydro-furan-2-carbonyl)-piperidin-4-yl]-phenyl}-ethyl)-[1,3]oxazinan-2-one] | – |
| 53% | C[C@@H](c1ccc(C2CCN(C(=O)[C@H]3CCCO3)CC2)cc1)N1CC[C@](CC(C)(C)O)(c2ccccc2)OC1=O [Example 24, (S)-6-(2-Hydroxy-2-methyl-propyl)-6-phenyl-3-((S)-1-{4-[1-((R)-tetrahydro-furan-2-carbonyl)-piperidin-4-yl]-phenyl}-ethyl)-[1,3]oxazinan-2-one] | – |
| 71% | C[C@@H](c1ccc(C2CCN(C(=O)C(C)(C)O)CC2)cc1)N1CC[C@](CC(C)(C)O)(c2ccccc2)OC1=O [Example 25, (S)-6-(2-Hydroxy-2-methyl-propyl)-6-phenyl-3-((S)-1-{4-[1-(2-hydroxy-2-propyl-carbonyl)-piperidin-4-yl]-phenyl}-ethyl)-[1,3]oxazinan-2-one] | – |
| 80% | C[C@@H](c1ccc(C2CCN(C(=O)[C@@H]3CCCN3C)CC2)cc1)N1CC[C@](CC(C)(C)O)(c2ccccc2)OC1=O [Example 26, (S)-6-(2-Hydroxy-2-methyl-propyl)-3-((S)-1-{4-[1-((S)-1-methyl-pyrrolidine-2-carbonyl)-piperidin-4-yl]-phenyl}-ethyl)-6-phenyl-[1,3]oxazinan-2-one] | – |
| 86% | C[C@@H](c1ccc(C2CCN(C(=O)[C@H]3CCCN3C)CC2)cc1)N1CC[C@](CC(C)(C)O)(c2ccccc2)OC1=O [Example 27, (S)-6-(2-Hydroxy-2-methyl-propyl)-3-((S)-1-{4-[1-((R)-1-methyl-pyrrolidine-2-carbonyl)-piperidin-4-yl]-phenyl}-ethyl)-6-phenyl-[1,3]oxazinan-2-one] | – |
| 1% | CNC(=O)N1CCC(c2ccc([C@H](C)N3CC[C@](CC(C)(C)O)(c4ccccc4)OC3=O)cc2)CC1 [Example 35, 4-(4-{(S)-1-[(S)-6-(2-Hydroxy-2-methyl-propyl)-2-oxo-6-phenyl-[1,3]oxazinan-3-yl]-ethyl}-phenyl)-piperidine-1-carboxylic acid methylamide] | – |
| 31% | C[C@@H](c1ccc(C2CCN(C(=O)N(C)C)CC2)cc1)N1CC[C@](CC(C)(C)O)(c2ccccc2)OC1=O [Example 36, 4-((S)-4-{1-[(S)-6-(2-Hydroxy-2-methyl-propyl)-2-oxo-6-phenyl-[1,3]oxazinan-3-yl]-ethyl}-phenyl)-piperidine-1-carboxylic acid dimethylamide] | – |
